According to US20250313558A1, “IMIDAZOLIDINE DERIVATIVE OR PHARMACEUTICALLY ACCEPTABLE SALT THEREOF, AND USE THEREOF” (CELLUS INC., priority 2023, published 2025):
pIC50: −log10 of the molar value.

What was measured:
Assay type in all cases: biochemical
ADAMTS5 = molecular target: T1, ADAMTS5 (Homo sapiens, UniProt Q9UNA0); assay: FRET assay, inhibition of ADAMTS5
T1 sequence (Q9UNA0 262-930): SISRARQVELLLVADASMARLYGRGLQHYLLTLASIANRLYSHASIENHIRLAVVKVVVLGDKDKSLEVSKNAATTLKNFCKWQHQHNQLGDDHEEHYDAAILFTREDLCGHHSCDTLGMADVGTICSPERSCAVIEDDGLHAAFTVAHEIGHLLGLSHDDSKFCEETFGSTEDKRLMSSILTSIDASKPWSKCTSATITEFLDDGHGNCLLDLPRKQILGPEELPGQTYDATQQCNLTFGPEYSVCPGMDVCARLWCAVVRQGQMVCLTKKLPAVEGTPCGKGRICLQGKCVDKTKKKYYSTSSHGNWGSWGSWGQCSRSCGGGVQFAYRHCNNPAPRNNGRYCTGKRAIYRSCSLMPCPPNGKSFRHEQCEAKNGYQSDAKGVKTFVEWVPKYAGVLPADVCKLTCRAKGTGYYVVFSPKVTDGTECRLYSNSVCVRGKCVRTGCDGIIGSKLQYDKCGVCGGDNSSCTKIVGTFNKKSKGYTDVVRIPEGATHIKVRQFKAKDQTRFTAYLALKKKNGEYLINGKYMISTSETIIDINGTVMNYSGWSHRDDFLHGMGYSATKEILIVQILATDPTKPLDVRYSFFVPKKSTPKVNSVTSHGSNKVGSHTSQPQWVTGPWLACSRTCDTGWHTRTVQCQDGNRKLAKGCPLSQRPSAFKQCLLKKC
Procedure: The control compound GLPG-1972 and four effective compounds (CLS-S210 (Formula 2), CLS-S282 (Formula 3), CLS-S213 (Formula 4), and CLS-S214 (Formula 5)) were treated with ADAMTS5, ADAMTS4, ADAM10, and ADAM17 proteins to perform Fluorescence Resonance Energy Transfer (FRET) evaluation. FRET assay is a method to detect and quantify the fluorescent signal generated when ADAM/ADAMTS proteins […] specific peptides.

ADAM10 = molecular target: T2, ADAM10 (Homo sapiens, UniProt O14672); assay: FRET assay, inhibition of ADAM10
T2 sequence (O14672 214-748): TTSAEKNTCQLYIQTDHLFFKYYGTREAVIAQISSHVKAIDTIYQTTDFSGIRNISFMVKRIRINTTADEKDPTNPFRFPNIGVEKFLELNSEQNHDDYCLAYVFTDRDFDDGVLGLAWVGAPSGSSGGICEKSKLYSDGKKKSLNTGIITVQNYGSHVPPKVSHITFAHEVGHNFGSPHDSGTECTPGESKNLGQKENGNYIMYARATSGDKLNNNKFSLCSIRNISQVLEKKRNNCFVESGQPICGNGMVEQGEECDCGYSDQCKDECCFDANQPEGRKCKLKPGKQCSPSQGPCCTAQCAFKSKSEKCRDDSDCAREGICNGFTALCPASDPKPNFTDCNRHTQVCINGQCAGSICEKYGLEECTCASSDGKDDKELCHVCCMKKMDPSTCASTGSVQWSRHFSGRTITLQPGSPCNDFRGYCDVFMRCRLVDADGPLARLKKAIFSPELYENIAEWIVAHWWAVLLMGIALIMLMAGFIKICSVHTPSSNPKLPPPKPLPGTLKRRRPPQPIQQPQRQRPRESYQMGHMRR
From the text: (§1) FRET assay is a method to detect and quantify the fluorescent signal generated when ADAM/ADAMTS proteins […] specific peptides.

ADAM17 = ADAM17 (Homo sapiens, UniProt P78536); assay: FRET assay, inhibition of ADAM17
Sequence of ADAM17 (P78536 215-824, species assumed): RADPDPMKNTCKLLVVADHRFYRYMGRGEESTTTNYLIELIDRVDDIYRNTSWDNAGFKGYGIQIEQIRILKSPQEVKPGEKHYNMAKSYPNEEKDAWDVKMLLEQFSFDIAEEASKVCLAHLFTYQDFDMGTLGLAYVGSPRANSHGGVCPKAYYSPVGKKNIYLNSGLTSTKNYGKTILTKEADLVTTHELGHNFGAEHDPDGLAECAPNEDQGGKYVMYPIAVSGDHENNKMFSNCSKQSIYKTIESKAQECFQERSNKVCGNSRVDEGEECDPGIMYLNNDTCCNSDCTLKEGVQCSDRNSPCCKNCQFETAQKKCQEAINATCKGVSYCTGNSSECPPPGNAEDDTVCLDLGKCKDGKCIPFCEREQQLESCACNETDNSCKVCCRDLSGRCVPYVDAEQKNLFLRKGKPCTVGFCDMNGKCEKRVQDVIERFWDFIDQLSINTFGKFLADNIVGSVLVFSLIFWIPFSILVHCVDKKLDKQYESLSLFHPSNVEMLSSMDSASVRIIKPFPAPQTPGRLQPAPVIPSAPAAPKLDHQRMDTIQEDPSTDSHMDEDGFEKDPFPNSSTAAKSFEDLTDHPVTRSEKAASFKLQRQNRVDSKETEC
From the text: as §1

`C[C@H]1CN(C(=O)CC[C@@]2(C3CC3)NC(=O)NC2=O)CCN1c1cc(F)cc(F)c1` [GLPG-1972] gave a pIC50 (ADAMTS5) of 7.19.
For `CNC(=O)[C@@H](NC(=O)[C@H](CCCc1ccccc1)[C@H](C)N(O)C=O)C(C)(C)C` [GI254023X], the “inhibition ability against ADAM10 (in words)” value (ADAM10) was “inhibit ADAM10 and ADAM17 at low concentrations”.
`CC(C)C[C@H](CC(=O)NO)C(=O)N[C@@H](Cc1ccc2ccccc2c1)C(=O)N[C@@H](C)C(N)=O` [TAPI-0] was tested, and the “inhibition ability against ADAM17 (in words)” value (ADAM17) was “inhibit ADAM10 and ADAM17 at low concentrations”.
